Measurements reported in PMC8219027, “A small-molecule inhibitor of the BRCA2-RAD51 interaction modulates RAD51 assembly and potentiates DNA damage-induced cell death” (Cell Chemical Biology, 2021).

Columns and labels:
[1] = Microsomal intrinsic clearance; settings: rat, rat microsomes
U87 = assay: cells; settings: Homo sapiens, U-87 MG, read-out: Absolute EC50, growth inhibition
PANC1 = assay: cells; settings: Homo sapiens, PANC-1, read-out: Absolute EC50, growth inhibition
HFL-1 = assay: cells; settings: Homo sapiens, HFL1, read-out: Absolute EC50, growth inhibition
CYP450 2C9 = target: T1, CYP450 2C9 (Homo sapiens, UniProt P11712); assay: CYP450 inhibition; assay type: in vitro ADME
T1 construct: Cyprotex (contract data)
T1 sequence (P11712 whole entry): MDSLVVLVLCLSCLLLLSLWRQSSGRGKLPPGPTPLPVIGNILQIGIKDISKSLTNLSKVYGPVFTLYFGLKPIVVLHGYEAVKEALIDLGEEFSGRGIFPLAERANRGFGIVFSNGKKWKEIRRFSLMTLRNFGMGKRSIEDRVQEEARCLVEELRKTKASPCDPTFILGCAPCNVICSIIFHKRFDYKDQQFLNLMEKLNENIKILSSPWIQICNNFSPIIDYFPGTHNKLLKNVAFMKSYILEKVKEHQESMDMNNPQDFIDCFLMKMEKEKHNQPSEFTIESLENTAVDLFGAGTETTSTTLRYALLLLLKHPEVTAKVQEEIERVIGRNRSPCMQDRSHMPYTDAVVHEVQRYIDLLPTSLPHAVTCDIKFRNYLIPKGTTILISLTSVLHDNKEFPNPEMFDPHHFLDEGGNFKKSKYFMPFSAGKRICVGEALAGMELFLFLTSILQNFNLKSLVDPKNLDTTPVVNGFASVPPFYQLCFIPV

CYP450 1A2 = target: T2, CYP450 1A2 (Homo sapiens, UniProt P05177); assay: CYP450 inhibition; assay type: in vitro ADME
T2 construct: Cyprotex (contract data)
T2 sequence (P05177 whole entry): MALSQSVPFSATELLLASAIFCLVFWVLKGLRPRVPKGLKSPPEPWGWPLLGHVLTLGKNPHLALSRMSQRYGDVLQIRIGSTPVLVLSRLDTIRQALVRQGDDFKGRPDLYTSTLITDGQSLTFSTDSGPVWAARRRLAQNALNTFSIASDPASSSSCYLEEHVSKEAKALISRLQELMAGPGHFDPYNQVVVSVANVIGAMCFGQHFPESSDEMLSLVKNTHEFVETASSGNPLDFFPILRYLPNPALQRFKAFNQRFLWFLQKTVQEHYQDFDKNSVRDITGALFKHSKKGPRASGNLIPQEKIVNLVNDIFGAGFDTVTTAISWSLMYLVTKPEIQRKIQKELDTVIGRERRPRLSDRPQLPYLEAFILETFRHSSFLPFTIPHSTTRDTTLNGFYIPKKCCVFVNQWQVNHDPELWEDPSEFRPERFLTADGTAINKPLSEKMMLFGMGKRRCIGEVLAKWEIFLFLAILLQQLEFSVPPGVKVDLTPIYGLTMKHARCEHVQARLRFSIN

A2780 = assay: cells; settings: Homo sapiens, A2780, read-out: Absolute EC50, growth inhibition
HCT116 = assay: cells; settings: Homo sapiens, HCT-116, read-out: Absolute EC50, growth inhibition
OVCAR3 = assay: cells; settings: Homo sapiens, OVCAR-3, read-out: Absolute EC50, growth inhibition
[2] = Mouse iv pharmacokinetics; settings: male, CD-1, mouse, in vivo, 1 mg/kg
MDA-MB-453 = assay: cells; settings: Homo sapiens, MDA-MB-453, read-out: Absolute EC50, growth inhibition
[3] = Microsomal intrinsic clearance; settings: mouse, mouse microsomes
[4] = system: HCT116 colon carcinoma cells; assay: Cell-cycle profiling by flow cytometry (propidium iodide); assay type: cell-based, human; settings: HCT116, 20 μM CAM833 and 3 Gy IR
From the text: Genetic inactivation of RAD51 enhances cellular sensitivity to ionizing radiation, accompanied by cell-cycle arrest at the G2 checkpoint for DNA damage ([Sonoda et al., 1998]; [Su et al., 2008]). We hypothesized that similar effects would be triggered by the exposure of cells to CAM833. […] Over time, there is a drop in the percentage of cells with 4N DNA in both treated and control groups. However, whereas in the control the percentage of cells in the apoptotic subG1 fraction remains below 5% throughout, in the compound-treated cells this rises progressively to peak at 15% at 48 hours (Figure 5D).
Propidium iodide staining solution (PI solution) was used at the following final concentrations: 200 ug/ml RNAase A (Sigma Aldrich, cat# 10109169001), 0.1% Triton-X 100 (v/v) and 20 ug/ml of propidium iodide solution diluted in 1x PBS. HCT116 cells were grown in 6-well plates in a total volume of 2 ml and treated with either test compound or DMSO control for the designated time. After treatment, medium was collected from the cells which were then washed in 1x PBS then removed from the plastic by the addition of in 500 μl Trypsin/EDTA until cells were monodispersed. The trypsin was neutralised by the removed media and the cell suspension was spun at 1000 rpm for 5 minutes. […] Cells were then counted and analysed using a Becton Dickinson LSR II cytometer and FCS Express software.

SK-MEL-24 = assay: cells; settings: Homo sapiens, SK-MEL-24, read-out: Absolute EC50, growth inhibition
CYP450 3A4 = target: T3, CYP450 3A4 (Homo sapiens, UniProt P08684); assay: CYP450 inhibition; assay type: in vitro ADME
T3 construct: Cyprotex (contract data)
T3 sequence (P08684 whole entry): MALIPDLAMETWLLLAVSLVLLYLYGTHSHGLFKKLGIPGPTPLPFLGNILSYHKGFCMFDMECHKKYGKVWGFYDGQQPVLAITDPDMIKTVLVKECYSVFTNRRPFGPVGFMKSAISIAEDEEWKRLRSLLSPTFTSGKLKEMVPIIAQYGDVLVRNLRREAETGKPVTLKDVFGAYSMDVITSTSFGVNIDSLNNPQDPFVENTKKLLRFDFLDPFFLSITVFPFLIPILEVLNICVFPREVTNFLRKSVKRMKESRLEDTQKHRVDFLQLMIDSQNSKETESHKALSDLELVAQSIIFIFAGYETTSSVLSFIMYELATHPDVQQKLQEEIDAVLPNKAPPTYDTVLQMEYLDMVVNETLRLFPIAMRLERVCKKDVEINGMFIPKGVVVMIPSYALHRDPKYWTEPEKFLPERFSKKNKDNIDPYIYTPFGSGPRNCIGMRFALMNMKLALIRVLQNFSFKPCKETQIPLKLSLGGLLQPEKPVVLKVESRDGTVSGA

[5] = Microsomal intrinsic clearance; settings: human, human microsomes
T.Tn = assay: cells; settings: Homo sapiens, read-out: Absolute EC50, growth inhibition
T24/83 = assay: cells; settings: Homo sapiens, T24/83, read-out: Absolute EC50, growth inhibition
hERG = hERG (Homo sapiens, UniProt Q12809); assay: hERG electrophysiology (whole-cell voltage-clamping); settings: @ 10 uM, whole-cell voltage-clamping in mammalian cells
Sequence of hERG (Q12809 whole entry): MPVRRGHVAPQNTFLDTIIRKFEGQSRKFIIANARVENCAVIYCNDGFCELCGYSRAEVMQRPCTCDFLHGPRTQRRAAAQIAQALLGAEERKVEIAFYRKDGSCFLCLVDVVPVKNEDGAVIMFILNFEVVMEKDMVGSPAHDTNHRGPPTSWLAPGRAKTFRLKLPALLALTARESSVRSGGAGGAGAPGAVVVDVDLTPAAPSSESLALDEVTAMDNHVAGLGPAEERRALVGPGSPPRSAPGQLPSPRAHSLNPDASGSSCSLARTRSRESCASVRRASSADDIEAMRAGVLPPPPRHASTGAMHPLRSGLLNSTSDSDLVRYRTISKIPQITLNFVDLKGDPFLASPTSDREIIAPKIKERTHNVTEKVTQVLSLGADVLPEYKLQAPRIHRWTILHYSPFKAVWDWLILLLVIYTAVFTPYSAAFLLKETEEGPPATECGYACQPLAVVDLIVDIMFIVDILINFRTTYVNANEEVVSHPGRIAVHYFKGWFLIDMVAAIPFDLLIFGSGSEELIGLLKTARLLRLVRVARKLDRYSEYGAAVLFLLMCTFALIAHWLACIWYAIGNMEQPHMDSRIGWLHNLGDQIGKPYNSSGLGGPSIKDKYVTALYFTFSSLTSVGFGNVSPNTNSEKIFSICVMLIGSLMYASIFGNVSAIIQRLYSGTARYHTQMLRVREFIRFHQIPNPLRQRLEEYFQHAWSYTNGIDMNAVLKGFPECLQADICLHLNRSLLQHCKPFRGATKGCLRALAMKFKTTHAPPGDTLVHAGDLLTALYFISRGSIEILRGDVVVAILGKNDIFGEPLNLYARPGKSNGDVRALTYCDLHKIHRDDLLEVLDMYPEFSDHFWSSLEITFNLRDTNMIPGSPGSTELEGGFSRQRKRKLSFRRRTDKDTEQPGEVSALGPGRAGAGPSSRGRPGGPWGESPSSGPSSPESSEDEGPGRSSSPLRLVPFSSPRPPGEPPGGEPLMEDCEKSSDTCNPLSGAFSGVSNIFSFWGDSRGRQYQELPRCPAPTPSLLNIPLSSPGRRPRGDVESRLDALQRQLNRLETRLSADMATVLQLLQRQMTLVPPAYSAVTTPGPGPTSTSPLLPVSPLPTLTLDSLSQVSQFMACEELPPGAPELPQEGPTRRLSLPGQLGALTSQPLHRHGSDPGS

RKO = assay: cells; settings: Homo sapiens, read-out: Absolute EC50, growth inhibition
HCT116 cells = assay: SRB growth inhibition assay; assay type: cell-based, human; settings: for IC50 / GI50: Homo sapiens; for IC50: HCT-116, 96 h, Figure 6D (cell line not given); for GI50: HCT-116, geometrical mean, n = 18
Description: Adherent cell lines (HCT116 and A549 cells) were seeded into flat-bottomed tissue culture 96-well plates in a volume of 150 μL of growth medium. HCT116 cells were seeded at 750 cells per well and A549 cells were seeded at 1000 cells per well. After 24 hours, compounds dissolved in DMSO were diluted in growth medium and were added to cells such that the final DMSO concentration was 1% (v/v) and the final volume in the well was 200 μL. Cells were then incubated in the presence of compound for 96 hours before fixation.
Medium was removed from cells and 100 μL of cold 1% (v/v) trichloroacetic acid was added for 30 minutes at 4 degrees. The plates were washed three times in tap water and left to dry at room temperature. The fixed cells were stained in a 0.057% sulphorodamine B/1% acetic acid solution (w/v) and incubated at room temperature with agitation for 30 minutes after which the dye was removed and the plates washed in 1% (v/v) acetic acid and left to dry. The dye was then solubilised in 10 mM Tris solution (pH8) and incubated for 30 minutes under agitation. The plates were then read on a PHERAstar plus plate reader (BMG Labtech) using the fluorescence intensity module (540-590 nm). Growth inhibition was calculated relative to DMSO controls and GI50 values were calculated using Graphpad Prism.

## COc1ccc([C@H](C)NC(=O)[C@@H]2C[C@@H](O)CN2C(=O)CNC(=O)c2ccc3cc(F)ccc3n2)c(Cl)c1 [CAM833, N-(2-((2S,4R)-2-(((S)-1-(2-chloro-4-methoxyphenyl)ethyl)carbamoyl)-4-hydroxypyrrolidin-1-yl)-2-oxoethyl)-6-fluoroquinoline-2-carboxamide]
[1]
  half-life: 0.798 h
  microsomal CLint: 28.9 ± 4.16 µL/min/mg
U87
  EC50: 109 µM
PANC1
  EC50: 96 µM
HFL-1
  EC50: 98.8 µM
CYP450 2C9
  IC50: > 25 µM
CYP450 1A2
  IC50: > 25 µM
A2780
  EC50: 46.5 µM
HCT116
  EC50: 63.5 µM
OVCAR3
  EC50: 53.6 µM
[2]
  Vd: 2.51 L/kg
  clearance: 44.6 mL/min/kg
  half-life: 1.44 h
MDA-MB-453
  EC50: 48 µM
[3]
  half-life: 0.718 h
  microsomal CLint: 32.2 ± 2.99 µL/min/mg
[4]; 4 hours after irradiation
  percentage of cells with 4N DNA (in words): causes an increase
[4]; at 48 hours
  percentage of cells in the apoptotic subG1 fraction, peak: 15%
SK-MEL-24
  EC50: 144 µM
CYP450 3A4; 3A4 midazolam site
  IC50: > 25 µM
CYP450 3A4; 3A4 testosterone site
  IC50: > 25 µM
[5]
  half-life: 1.28 h
  microsomal CLint: 18 ± 4.52 µL/min/mg
T.Tn
  EC50: 55.8 µM
T24/83
  EC50: 96.7 µM
hERG
  Inhibition of hERG tail-currents: 12%
RKO
  EC50: 63.5 µM
HCT116 cells; HCT116
  GI50 with 3 Gy IR lower than GI50 for compound alone: more than 2 fold
HCT116 cells; 0 Gy IR, SRB 96 h
  IC50: 63.5 µM
HCT116 cells; 1 Gy IR, SRB 96 h
  IC50: 30.4 µM
HCT116 cells; 2 Gy IR, SRB 96 h
  IC50: 13 µM
HCT116 cells; 3 Gy IR, SRB 96 h
  IC50: 11.8 µM
HCT116 cells; HCT116, CAM833 alone, 96 h exposure
  GI50: 38 µM
HCT116 cells; HCT116, combined with 3 Gy IR
  GI50: 14 µM
HCT116 cells; fixed 10 μM dose, 0 to 3 Gy IR, SRB 96 h
  effect of combination with increasing doses of IR on growth suppression (in words): potentiates
